From ChEMBL document CHEMBL2417405, “Synthesis, enzyme kinetics and computational evaluation of N-(β-D-glucopyranosyl) oxadiazolecarboxamides as glycogen phosphorylase inhibitors” (Bioorg Med Chem, 2013)
Calls of active or inactive are those of the source. The calls are words filed in the database; no cut-off is given here.

The compounds below were run against T1, Glycogen phosphorylase, muscle form (Oryctolagus cuniculus, UniProt P00489).
T1 sequence (P00489 whole entry): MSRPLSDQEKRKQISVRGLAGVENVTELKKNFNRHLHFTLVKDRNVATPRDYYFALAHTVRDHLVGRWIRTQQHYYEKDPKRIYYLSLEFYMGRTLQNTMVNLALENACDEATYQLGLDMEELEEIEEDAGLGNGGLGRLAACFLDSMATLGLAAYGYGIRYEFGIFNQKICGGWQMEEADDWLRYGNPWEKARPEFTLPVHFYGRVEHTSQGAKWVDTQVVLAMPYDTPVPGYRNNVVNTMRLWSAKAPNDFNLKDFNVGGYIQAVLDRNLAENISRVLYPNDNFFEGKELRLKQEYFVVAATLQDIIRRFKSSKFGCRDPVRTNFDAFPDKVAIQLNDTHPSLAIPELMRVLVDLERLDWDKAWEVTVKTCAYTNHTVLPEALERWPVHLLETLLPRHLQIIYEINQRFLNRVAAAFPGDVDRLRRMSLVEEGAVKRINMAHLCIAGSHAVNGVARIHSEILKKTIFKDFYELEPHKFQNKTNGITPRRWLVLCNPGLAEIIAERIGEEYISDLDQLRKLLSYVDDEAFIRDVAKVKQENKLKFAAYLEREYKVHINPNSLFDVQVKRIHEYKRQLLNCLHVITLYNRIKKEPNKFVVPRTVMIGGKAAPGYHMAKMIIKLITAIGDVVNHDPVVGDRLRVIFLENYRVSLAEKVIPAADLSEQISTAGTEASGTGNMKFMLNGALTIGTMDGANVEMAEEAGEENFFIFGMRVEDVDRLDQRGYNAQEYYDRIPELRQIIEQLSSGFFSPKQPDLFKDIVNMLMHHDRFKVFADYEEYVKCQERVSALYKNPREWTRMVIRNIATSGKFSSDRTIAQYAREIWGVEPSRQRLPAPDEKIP
Description: Inhibition of rabbit skeletal muscle glycogen phosphorylase b by Lineweaver-Burk plot method
Compound `O=C(N[C@@H]1O[C@H](CO)[C@@H](O)[C@H](O)[C@H]1O)c1cn(-c2ccccc2)nn1` has a Ki of 75 µM. `O=C(N[C@@H]1O[C@H](CO)[C@@H](O)[C@H](O)[C@H]1O)c1cc(-c2ccccc2)no1` was tested, and the Ki was 172 µM. With `O=C(N[C@@H]1O[C@H](CO)[C@@H](O)[C@H](O)[C@H]1O)c1nnc(-c2ccc3ccccc3c2)o1` the Ki was 30 µM. `O=C(N[C@@H]1O[C@H](CO)[C@@H](O)[C@H](O)[C@H]1O)c1nnc(-c2ccccc2)o1` showed a Ki of 545 µM. `O=C(N[C@@H]1O[C@H](CO)[C@@H](O)[C@H](O)[C@H]1O)c1noc(-c2cccc3ccccc23)n1` gave a Ki of 33 µM. `O=C(N[C@@H]1O[C@H](CO)[C@@H](O)[C@H](O)[C@H]1O)c1noc(-c2ccccc2)n1` showed a Ki of 136 µM. `O=C(N[C@@H]1O[C@H](CO)[C@@H](O)[C@H](O)[C@H]1O)c1nc(-c2cccc3ccccc23)no1` was tested, and the Ki was 145 µM. In the case of `O=C(N[C@@H]1O[C@H](CO)[C@@H](O)[C@H](O)[C@H]1O)c1nc(-c2ccccc2)no1`, the Ki is reported as 104 µM. In the case of `O=C(N[C@@H]1O[C@H](CO)[C@@H](O)[C@H](O)[C@H]1O)c1nnc(-c2cccc3ccccc23)o1`, the Ki is reported as 172 µM.

The compounds below were run against T2, Glycogen phosphorylase, muscle form (Oryctolagus cuniculus) (UniProt P00489) (assay: Inhibition of rabbit skeletal muscle glycogen phosphorylase bat 625 uM by Lineweaver-Burk plot method).
T2 sequence (whole entry): T1 sequence (P00489 whole entry)
With `O=C(N[C@@H]1O[C@H](CO)[C@@H](O)[C@H](O)[C@H]1O)c1nc(-c2ccc3ccccc3c2)no1` the inhibition was “inactive”. With `O=C(N[C@@H]1O[C@H](CO)[C@@H](O)[C@H](O)[C@H]1O)c1cc(-c2ccc3ccccc3c2)no1` the inhibition was “inactive”. `O=C(N[C@@H]1O[C@H](CO)[C@@H](O)[C@H](O)[C@H]1O)c1cn(-c2ccc3ccccc3c2)nn1` was tested, and the inhibition was “inactive”. For `O=C(N[C@@H]1O[C@H](CO)[C@@H](O)[C@H](O)[C@H]1O)c1noc(-c2ccc3ccccc3c2)n1`, the inhibition was “inactive”.
